These results are taken from patent US9387213B2, “Small molecules inhibiting oncoprotein Myc” (Health Research, Inc., priority 2012, dated 2016).

In one data set the test system is SK-Mel-103. Nature of the data set: Suppression of proliferation / senescence induction in melanoma line. To be noted: Homo sapiens. The class given is cell-based. The source says: (§1) 260 analogs of N77A7 were selected from several commercially available libraries of small molecules based on the structural similarities with N77A7. The compounds were screened for the ability to permanently suppress proliferation and induce senescence in cells from melanoma lines SK-Mel-19 and SK-Mel-103. Based on the above-described screening procedure, seven small molecules were identified as having IC50 values lower than that of N77A7.

A further data set relates to SK-Mel-19. The description is as above. Conditions: Homo sapiens, SK-MEL19. Type of data set: cell-based.
Excerpt: as §1

Another data set concerns HO15.19-Vector cells. Nature of the data set: Cell cycle distribution by FACS. To be noted: 3 μM. The class given is cell-based, rat. A general note: Flow cytometry measures light scatter and fluorescence of single cells or particles in a stream.
The subject of data set [1] is SK-Mel-103 xenografts. Kind of data set: SK-Mel-103 xenograft efficacy study CBL2.5-01-Ms-2, N77A7 in Captisol. The class given is in vivo, athymic nude mice. Here is the method:
FIG. 9 illustrates the effect of N77A7 on survival of SK-Mel-103 tumor-bearing mice. […] When at least one tumor on the majority of mice reached ˜50 mm^3, mice were randomly divided into treatment groups. Starting on Day 1 of treatment, mice were treated daily by ip injection of either 50 mg/kg N77A7 or the equivalent amount of Captisol vehicle. Mice were followed until tumors reached 1000 mm^3 or tumors ulcerated or 28 days of treatment, whichever came first. The proportion of surviving mice is depicted in the graph. The survival of N77A7 and vehicle control-treated mice was compared using the Log Rank test. p-value<0.05 indicates significance.
FIG. 10 illustrates the effect of Captisol and N77A7 on mouse weight. (A) Mean change in body weight as determined by calculating the % starting weight, which is the weight of a mouse on Day X divided by the weight of the same mouse on Day 1 and multiplied by 100. […] (C)-(D) Changes in mouse weight for individual mice in each treatment group calculated as described in (A).
FIG. 11 illustrates the effect of 50 mg/kg N77A7 on tumor growth. (A) Athymic nude mice were inoculated with 1×10^6 SK-Mel-103 tumor cells in each rear flank. When at least one tumor on a mouse was ˜50 mg for the majority of mice, treatment commenced. Mice were treated once daily ip with 50 mg/kg N77A7 or an equivalent amount of vehicle control (i.e., Captisol). Tumors were measured by digital caliper on Day 1 and then twice per week thereafter. Tumor measurements were made blind to the treatment each mouse received. Data is presented as the mean tumor volume on each measurement day. Comparison of tumor volume between treatment groups was made using unpaired t-tests. P value <0.05 is significant. (B) Same as (A) except data is presented as mean fold tumor growth, which was calculated by dividing the mean tumor volume on Day X by that of the same tumor on Day 1.
FIG. 12 illustrates the effect N77A7 on tumor doubling time and the time to reach 1000 mm^3 Growth curves for each tumor within each treatment group were plotted (tumor volume vs days from start of treatment). Regression analysis using the exponential trendline in Excel was used to generate an equation for each curve. From the equation, the tumor doubling time (A) and the time to reach the experimental endpoint of 1000 mm^3 was calculated. Error bars represent the standard error of the mean and p values were obtained using unpaired, two-sided t-tests.
Animal study protocol CBL2.5-01-Ms-2. N77A7 formulated in Captisol was prepared. Both N77A7 and Captisol vehicle were prepared weekly according to the needs of the study. SK-Mel-103 melanoma cells (1×10^6 cells/inoculation were inoculated into each rear flank of 20 athymic nude (7.5 week old males) on Sep. 11, 2009. Prior to commencement of treatment, mice were randomly assigned to treatment groups with 2 of 4 mice per cage assigned to the Captisol vehicle control group and the other 2 mice to the 50 mg/kg N77A7 group. When at least one tumor per mouse for the majority of mice reached ˜50 mm^3 in tumor volume, treatment commenced. The first day of treatment (Day 1) was Sep. 21, 2009. Administration of N77A7 and vehicle control was performed daily by ip administration of 2.5 mg/ml solution of N77A7 or equivalent amount of vehicle control at 500 μl/25 g mouse body weight. Mouse body weight measurements were performed prior to commencement of treatment and Mondays-Wednesdays-Fridays thereafter. Administration volumes were adjusted during the course of the study based on the latest weight measurements. Treatments were administered. Tumor measurements were performed without prior knowledge of which treatment group each mouse belonged (i.e., blinded to treatment groups). When at least one tumor of a mouse reached 1000 mm^3 or tumor ulceration was evident, mice were euthanized according to the approved IACUC protocol (CBL 1096M). The experiment was completed on Day 18 (Oct. 8, 2009). […]

Data set [2] relates to SK-Mel-103 xenografts. Nature of the data set: Preliminary in vivo testing CBL2.5-01-Ms-1, N77A7 in methylcellulose. Further details: species or system athymic nude mice. Conditions: after a week of ip injection, prepared in methylcellulose. The source says: N77A7 was identified in a small molecule library screen for inhibitors of the N-myc oncoprotein, which is involved in the pathogenesis of the childhood tumor neuroblastoma. The molecule is also effective against c-myc, a family member of N-myc that is overexpressed or amplified in a wide variety of tumors, including melanoma. In vitro, the effects of N77A7 on melanoma cells (e.g., SK-Mel-103) closely reflect the effects of myc shRNA on the same cells. In order to determine whether this in vitro effect can translate into an in vivo anti-tumor effect, we tested 50 mg/kg N77A7 administered daily ip against SK-Mel-103 xenografts established in athymic nude mice. […]

The test system of data set [3] is C-MYC-activated global gene expression in SK-Mel-103 melanoma cells. Nature of the data set: Global gene expression analysis, Affymetrix U133 Plus 2.0. Conditions: 4 μM, 48 hours. Type of data set: cell-based, human. The procedure:
FIG. 13 illustrates a comparison of changes in global gene expression caused by depletion of C-MYC via shRNA or by treatment with N77A7.
SK-Mel-103 melanoma cells were infected with control- or MYC shRNA-expressing lentiviruses or treated with DMSO or 4 μM of N77A7. In 48 hours after lentiviral infection or incubation with the chemicals, cells were collected, RNA was isolated and subjected to global expression analysis using Affymetrix GeneChip® Human Genome U133 Plus 2.0 Platform. A linear model specifically designed for microarray analysis was applied to the data. Differentially expressed probe sets were detected using a nested F-test approach. An adjusted p-value of 0.005 was used to assess significance, adjusting for multiple comparisons using false discovery rate. The obtained results are schematically represented in FIG. 13. It was determined that incubation with N77A7 negatively affected expression of 820 genes by ≧2 fold (591+229, FIG. 13). […] Therefore it is logical to expect that the number of genes whose expression is suppressed both by MYC-shRNA and N77A7 should be higher than the number of genes whose expression is induced by both treatments.

The mark [4] stands for this setting: 50 mg/kg daily ip in Captisol, necropsy of several mice.

In the data set with SK-Mel-103, `CCN(CC)c1ccc(/C=N/NC(=O)Cn2nnc(-c3ccccc3)n2)c(O)c1` [Compound N77A7] showed an IC50 of 3000 nM. The same compound had a concentration for half-maximal inhibition (IC50) with SK-Mel-19 of 3000 nM. The “HO15.19-Vector G2” value in the data set on HO15.19-Vector cells (percent of cells in G2 phase) came to 23.88%. Further, the “HO15.19-Vector S” value in the data set with HO15.19-Vector cells (percent of cells in S phase) turned out to be 21.22%. Moreover, the “treated mice remaining in the study (survival)” value in the data set on SK-Mel-103 xenografts [1] (50 mg/kg daily ip in Captisol, after 14 days of treatment, all Captisol-treated mice euthanized, logrank P=0.0083) is recorded as 5 of the 10. In addition, in the data set with SK-Mel-103 xenografts [1] (setting [4]), the “compound precipitation at necropsy” value is “no signs of compound precipitation within the abdominal cavity” and the peritonitis at necropsy result is “no signs of peritonitis”. Also, the “maximum tumor growth inhibition” value in the data set with SK-Mel-103 xenografts [1] (50 mg/kg daily ip in Captisol, versus Captisol vehicle) is around 45%. In addition, the “effect on mouse weight” value with SK-Mel-103 xenografts [1] (50 mg/kg daily ip, 14 consecutive days of treatment) is recorded as “did not cause any weight loss”. Besides, in the data set with SK-Mel-103 xenografts [1] (50 mg/kg daily ip, from regression of growth curves, p=0.0004), the “growth delay in reaching the study endpoint (1000 mm3)” value is reported as 5 days. Moreover, in the data set with SK-Mel-103 xenografts [1] (50 mg/kg daily ip, from regression of growth curves, p=0.0157), the “increase of doubling time for tumor growth” value stood at 1 days. In addition, in the data set with SK-Mel-103 xenografts [1] (50 mg/kg daily ip, control <50% (8/18)), the “starting tumors left in the study by Day 14” value came to 80%. In the data set on SK-Mel-103 xenografts [2], the peritonitis entry is on record as “severe peritonitis”. Further, in data set [3], the “number of genes whose expression was negatively affected by ≧2 fold” value amounted to 820 genes, the “number of these genes also suppressed ≧2 fold by MYC shRNA” value came to 591 genes, the “share of genes induced ≧2 fold also upregulated ≧2 fold by MYC shRNA” value was found to be 47.1% and the “share of suppressed genes also suppressed ≧2 fold by MYC shRNA” value came to 72.1%.

The IC50 is the concentration needed to halve the response being measured. Lower therefore signals greater potency in that assay.
